Tests used:
Assay type in all cases: cell-based
[1] = test system: translocation of the LC3 protein in Hela GFP-LC3 cells; test: Translocation of the LC3 protein in Hela human cells measured by image analysis cytometry (test C, autophagy); conditions: EBSS + 10 μM hydroxychloroquine, cells with LC3 granulations, absolute IC50
Method: Inhibitory activity of the molecules on autophagy is measured by means of the translocation of the LC3 protein from the cytoplasm to the autophagosomes. For this, Hela cells were transfected with a vector encoding the chimeric protein GFP-LC3. A Hela clone stably expressing the GFP-LC3 protein was selected.
Study of the Translocation of the LC3 Protein in Hela Human Cells, Measured by Image Analysis Cytometry (Test C):
(§1) On day 1, the Hela GFP-LC3 cells are seeded into 96-well plates coated with poly-D-lysine (Greiner, #655946) at the concentration of 15000 cells/well in 200 μl of DMEM medium (DMEM Gibco #11960-044) containing 10% of foetal calf serum (FCS Gibco, #10500-056) and 1% glutamine (L-Glu Gibco #25030-024), and incubated at 37° C., 5% CO2, overnight.
On day 2, the cells are washed twice with EBSS (Sigma #E3024). The cells are then incubated in EBSS, 10 μM hydroxychloroquine and test products, for 2 hours at 37° C. in the presence of 5% CO2. The molecules are diluted in dimethyl sulphoxide (DMSO Sigma #D2650), the final DMSO percentage being 0.1%. The molecules are tested at increasing concentrations in a range that can extend from 10 nM to 1 μM.
After this incubation, the cells are fixed with 4% paraformaldehyde (Sigma #HT501128 4L) for 10 min. The cells are then washed twice with PBS and the nuclei then stained with 2 μg/ml of Hoechst 33342 (Invitrogen #H3570). The 96-well plates are then read with the iCyte image analysis cytometer (Compucyte).
The activity of the product is translated to IC50, obtained from a dose-response curve of various concentrations tested and representing the dose giving 50% specific inhibition (absolute IC50). 2 independent experiments make it possible to calculate the mean of the IC50 values.

[2] = test system: AKT protein phosphorylated on serine 473 (P-AKT-S473) in PC3 human prostate carcinoma cells; test: pAKT expression in PC3 human prostate carcinoma cells measured by MSD Multi-spot Biomarker detection (test B); conditions: MSD sandwich immunoassay, 1 to 2 h incubation, absolute IC50
Method: The inhibitory activity of the molecules on AKT phosphorylation is measured either by western blotting using the technique described below, or by the MSD Multi-spot Biomarker detection technique from Meso Scale Discovery also described below.
Study of pAKT Expression in PC3 Human Prostate Carcinoma Cells Measured by the MSD Multi-Spot Biomarker Detection Technique from Meso Scale Discovery (Test B):
This test is based on measuring the expression of the AKT protein phosphorylated on serine 473 (P-AKT-S473), in the PC3 human prostate carcinoma line, by means of the technique based on a sandwich immunoassay using the MSD Multi-spot Biomarker Detection kit from Meso Scale Discovery: phospho-Akt (Ser473) whole cell lysate kit (#K151CAD) or phospho-Akt (Ser473)/Total Akt whole cell lysate kit (#K151OOD). The primary antibody specific for P-AKT-S473 (Kit #K151CAD) is coated onto an electrode in each well of the 96-well plates of the MSD kit: after the addition of a protein lysate to each well, the signal is visualised by adding a secondary detection antibody labelled with an electrochemoluminescent compound. The procedure followed is that described in the kit.
as §1, with “PC3” for “Hela GFP-LC3”, “(TPP, #92096)” for “coated with poly-D-lysine (Greiner, #655946)”, “35 000” for “15000”
On day 2, the cells are incubated in the presence or absence of the test products for 1 to 2 h at 37° C. in the presence of 5% of CO2. The molecules, diluted in dimethyl sulphoxide (DMSO Sigma #D2650), are added from a 20-times concentrated stock solution, the final percentage of DMSO being 0.1%. The molecules are tested either at a single concentration of less than or equal to 10 μM, or at increasing concentrations in a range that can extend from less than 1 nM to 10 μM.
After this incubation, the cells are lysed for the preparation of the proteins. For this, after the culture medium has been drawn off, 50 μl of complete Tris Lysis Buffer of the MSD kit containing the protease and phosphatase inhibitor solutions are added to the wells and the cells are lysed for 1 h at 4° C. with shaking. At this stage, the plates containing the lysates can be stored at −20° C. or at −80° C.
The wells of the 96-well plates of the MSD kit are saturated for 1 h at ambient temperature with the blocking solution of the MSD kit. Four washes are carried out with 150 μl of Tris Wash Buffer of the MSD kit. The lysates previously prepared are transferred into the 96-well multi-spot plates of the MSD kit and incubated for 1 h at ambient temperature, with shaking. Four washes are carried out with 150 μl of Tris Wash Buffer of the MSD kit. 25 μl of the MSD sulfo-tag detection antibody solution are added to the wells and incubated for 1 h at ambient temperature, with shaking. Four washes are carried out with 150 μl of Tris Wash Buffer of the MSD kit. 150 μl of Read Buffer of the MSD kit are added to the wells and the plates are read immediately on the S12400 instrument from Meso Scale Discovery.
The instrument measures a signal for each well. Wells without cells and containing the lysis buffer serve to determine the background noise that will be subtracted from all the measurements (min). The wells containing cells in the absence of product and in the presence of 0.1% DMSO are considered to be the 100% signal (max). The percentage inhibition is calculated for each concentration of test product according to the following formula: (1-((test−min)/(max−min)))×100.
The activity of the product is translated to IC50, obtained from a dose-response curve of the various concentrations tested and representing the dose giving 50% specific inhibition (absolute IC50). 2 independent experiments make it possible to calculate the mean of the IC50 values.

[3] = test system: P. falciparum (highly chloroquine-resistant strain Fcm29-Cameroon); test: Antimalarial activity test (radioactive micromethod of Desjardins, tritiated hypoxanthine incorporation); conditions: Plasmodium falciparum, Erythrocyte, infected human erythrocytes, 48 h
Method: Antimalarial Activity Test
The antimalarial activity tests are carried out according to the radioactive micromethod of Desjardins (R. E. Desjardins, C. J. Canfield, J. D. Haynes, J. D. Chulay, Antimicrob. Agents Chemother., 1979, 16, 710-718). The assays are carried out in 96-well microplates (Test Plates Ref. 92696, Techno Plastic Products Ag, Zollstrasse 155, CH-8219 Trasadingen). The P. falciparum strains are cultured in solutions of RPMI 1640 supplemented with 5% of human serum with a haematocrit at 2% and a blood parasite concentration at 1.5%. For each assay, the parasites are incubated with selected concentrations of drugs for 48 h at 37° C. in a humid atmosphere and at 5% CO2. Artemisinin, artesunate and also chloroquine diphosphate are used as reference molecules. The first dilution of the drug is prepared at 1 mg/ml in dimethyl sulphoxide. The range of dilutions of the successive daughter solutions is also prepared in dimethyl sulphoxide. Each daughter dilution is subsequently diluted to 1/50 in RPMI 1640 supplemented with 5% of human serum, all the dilutions being carried out at 37° C. These dilutions are then added to the parasites in culture in the microplates. After addition of the drug, the parasites are in culture in RPMI 1640 containing 5% of human serum and 1% of dimethyl sulphoxide. The parasite growth is measured by incorporation of tritiated hypoxanthine (added 24 h after the beginning of the exposure to the drug) compared with the incorporation in the absence of drug.
The activity of the product is translated to % inhibition of the growth of P. falciparum (highly chloroquine-resistant strain Fcm29-Cameroon) at 1 μM and 0.1 μM in an in vitro test using infected human erythrocytes.

[4] = Homo sapiens, PC-3, P-AKT-S473, PC3 cells

IC50 ([1]; Homo sapiens, HeLa, 2 h)	SMILES	inhibition at 1 µM [3]	also measured
822 nM	CCC(c1ccccc1)N1c2nc(N3CCOCC3)cc(=O)n2C[C@@]1(C)C(F)(F)F (single isomer, unassigned) [Example 13, (S)-2-Methyl-7-morpholin-4-yl-1-((R) or (S)-1-phenylpropyl)-2-trifluoromethyl-2,3-dihydro-1H-imidazo[1,2-a]pyrimidin-5-one]		
872 nM	CC(c1cccc(F)c1)N1c2nc(N3CCOCC3)cc(=O)n2C[C@@]1(C)C(F)(F)F (single isomer, unassigned) [Example 22, (2S)-1-[(1R or 1S)-1-(3-Fluorophenyl)ethyl]-2-methyl-7-(morpholin-4-yl)-2-(trifluoromethyl)-2,3-dihydroimidazo[1,2-a]pyrimidin-5(1H)-one]		IC50 [2, 4]: 59 nM
345 nM	COc1ccc(CCN2c3nc(N4CCOCC4)cc(=O)n3CC2(C)C)cc1 [Example 17, 1-[2-(4-Methoxyphenyl)ethyl]-2,2-dimethyl-7-morpholin-4-yl-2,3-dihydro-1H-imidazo[1,2-a]pyrimidin-5-one]		
39 nM	COc1ccc(CCN2c3nc(N4CCOCC4)c(F)c(=O)n3C[C@@]2(C)C(F)(F)F)cc1 [Example 18, (2S)-6-Fluoro-1-[2-(4-methoxyphenyl)ethyl]-2-methyl-7-(morpholin-4-yl)-2-(trifluoromethyl)-2,3-dihydroimidazo[1,2-a]pyrimidin-5(1H)-one]		

More lines, now with the values behind:

SMILES	IC50 ([1]; Homo sapiens, HeLa, 2 h)	inhibition at 1 µM [3]	also measured
CC(c1ccccc1)N1c2nc(N3CCOCC3)cc(=O)n2C[C@@]1(C)C(F)(F)F (single isomer, unassigned) [Example 31, (2S)-2-Methyl-7-(morpholin-4-yl)-1-[(1R or 1S)-1-phenylethyl]-2-(trifluoromethyl)-2,3-dihydroimidazo[1,2-a]pyrimidin-5(1H)-one]			IC50 ([2]; P-AKT-S473, PC3 cells): 60 nM; IC50 ([1]; 2 hours): 334 nM
C[C@@]1(C(F)(F)F)Cn2c(nc(N3CCOCC3)cc2=O)N1CCSc1ccccc1 [Example 7, (S)-2-Methyl-7-morpholin-4-yl-1-(2-phenylsulfanylethyl)-2-trifluoromethyl-2,3-dihydro-1H-imidazo[1,2-a]pyrimidin-5-one]	71 nM		
C[C@H](CN1c2nc(N3CCOCC3)cc(=O)n2C[C@@]1(C)C(F)(F)F)c1ccccc1 [Example 9, (S)-2-Methyl-7-morpholin-4-yl-1-((S)-2-phenylpropyl)-2-trifluoromethyl-2,3-dihydro-1H-imidazo[1,2-a]pyrimidin-5-one]	191 nM		
C[C@@]1(C(F)(F)F)Cn2c(nc(N3CCOCC3)cc2=O)N1C[C@H](O)c1ccccc1 [Example 11]	235 nM	13%	
C[C@@]1(C(F)(F)F)Cn2c(nc(N3CCOCC3)cc2=O)N1C(=O)c1ccccc1Cl [Example 34, (2S)-1-[(2-chlorophenyl)carbonyl]-2-methyl-7-(morpholin-4-yl)-2-(trifluoromethyl)-2,3-dihydroimidazo[1,2-a]pyrimidin-5(1H)-one]			IC50 [2, 4]: 159 nM
COc1cc(F)c(C(O)CN2c3nc(N4CCOCC4)cc(=O)n3C[C@@]2(C)C(F)(F)F)cc1OC (stereo partly drawn) [Example 39, (S)-1-[2-(2-fluoro-4,5-dimethoxyphenyl)-2-hydroxyethyl]-2-methyl-7-morpholin-4-yl-2-trifluoromethyl-2,3-dihydro-1H-imidazo[1,2-a]pyrimidin-5-one]		85%	inhibition at 0.1 µM [3]: 39%
COc1ccccc1[C@H](O)CN1c2nc(N3CCOCC3)cc(=O)n2C[C@@]1(C)C(F)(F)F [Example 40, (S)-1-[(S)-2-hydroxy-2-(2-methoxyphenyl)ethyl]-2-methyl-7-morpholin-4-yl-2-trifluoromethyl-2,3-dihydro-1H-imidazo[1,2-a]pyrimidin-5-one]		80%	inhibition at 0.1 µM [3]: 20%
COc1cc(Cl)ccc1[C@H](O)CN1c2nc(N3CCOCC3)cc(=O)n2C[C@@]1(C)C(F)(F)F [Example 41, (S)-1-[(S)-2-(4-chloro-2-methoxyphenyl)-2-hydroxyethyl]-2-methyl-7-morpholin-4-yl-2-trifluoromethyl-2,3-dihydro-1H-imidazo[1,2-a]pyrimidin-5-one]		78%	
COc1cc(F)ccc1[C@H](O)CN1c2nc(N3CCOCC3)cc(=O)n2C[C@@]1(C)C(F)(F)F [Example 42, (S)-1-[(S)-2-(4-fluoro-2-methoxyphenyl)-2-hydroxyethyl]-2-methyl-7-morpholin-4-yl-2-trifluoromethyl-2,3-dihydro-1H-imidazo[1,2-a]pyrimidin-5-one]		78%	
COc1ccc([C@H](O)CN2c3nc(N4CCOCC4)cc(=O)n3C[C@@]2(C)C(F)(F)F)c(Cl)c1 [Example 43, (S)-1-[(S)-2-(2-chloro-4-methoxyphenyl)-2-hydroxyethyl]-2-methyl-7-morpholin-4-yl-2-trifluoromethyl-2,3-dihydro-1H-imidazo[1,2-a]pyrimidin-5-one]		74%	inhibition at 0.1 µM [3]: 22%
